Measurements from patent publication US10655185B2, “Methods for diagnosis and prognosis of epithelial tumors” (H. Lee Moffitt Cancer Center and Research Institute, Inc., priority 2014, dated 2020).

Test system: LNCaP-104S cells
Experiment: Genome-wide miRNA expression profiling of androgen deprived / androgen blocked LNCaP cells
Assay type: cell-based
From the text: FIGS. 1A and 1B show expression of miR-17-92 and Frabin in Androgen Deprived LNCaP Cells. The androgen dependent cell line, LNCaP-104S, was subjected to androgen deprivation or androgen blockade for 3 weeks. Genome-wide miRNA expression profiling identified the miR-17-92 family to be down regulated by 1 week, and further reduced at 3 weeks of treatment. […] FIG. 1B is a Western blot of FGD4/Frabin expression in treated and untreated LNCaP-104S cells.
Prolonged androgen blockade leads to outgrowth of androgen independent (AI) cells and the development of castration resistant prostate cancer (CRPC). The transition to androgen independence can occur through several adaptive mechanisms and usually results in the acquisition of a more aggressive phenotype, compared to their androgen sensitive progenitors. […] However, the role of miRNAs in progression of androgen sensitive prostate cancer to CRPC has not been clearly defined. To study this transition, androgen sensitive (AS) LNCaP prostate cancer cells were subjected to androgen blockade until a subset of cells (CDXR) survived. […] The miR-17-92 cluster is one of the groups of miRNAs that is down regulated as the cancer cells progresses towards androgen […] (ADT) resistance.

CC(O)(CS(=O)(=O)c1ccc(F)cc1)C(=O)Nc1ccc(C#N)c(C(F)(F)F)c1 (stereo not shown) [CDX]
fold change in expression (Δ Change) of hsa-miR-17 (1 wk CDX): −3.37 | fold change in expression (Δ Change) of hsa-miR-17* (1 wk CDX): −3.13 | fold change in expression (Δ Change) of hsa-miR-18a (1 wk CDX): −4.36 | fold change in expression (Δ Change) of hsa-miR-18b (1 wk CDX): −2.28 | fold change in expression (Δ Change) of hsa-miR-20a (1 wk CDX): −3.31 | fold change in expression (Δ Change) of hsa-miR-20a* (1 wk CDX): −1.25 | fold change in expression (Δ Change) of hsa-miR-20b* (1 wk CDX): −0.56 | fold change in expression (Δ Change) of hsa-miR-106a (1 wk CDX): −3.18 | fold change in expression (Δ Change) of hsa-miR-17 (3 wks CDX): −24.99 | fold change in expression (Δ Change) of hsa-miR-17* (3 wks CDX): −3.94 | fold change in expression (Δ Change) of hsa-miR-18a (3 wks CDX): −14.13 | fold change in expression (Δ Change) of hsa-miR-18b (3 wks CDX): −21.36 | fold change in expression (Δ Change) of hsa-miR-20a (3 wks CDX): −4.12 | fold change in expression (Δ Change) of hsa-miR-20a* (3 wks CDX): −18.17 | fold change in expression (Δ Change) of hsa-miR-20b* (3 wks CDX): −4.60 | fold change in expression (Δ Change) of hsa-miR-106a (3 wks CDX): −9.40
